According to patent US6083922A (priority 1997, dated 2000):
Values after ≈ are worked out from the molar mass of the structure shown. Values joined by “and” are separate entries in the source; they are usually repeats but may differ in a detail not shown here. Identical values can stand only once. Like-named read-outs stand apart in the source and are kept apart here.

Key:
[1] = test system: M. tuberculosis H37Rv(lux); experiment: Killing curve assay; assay type: cell-based, Mycobacterium tuberculosis
[2] = assay type: physicochemical
[3] = FEV1 change following aerosol administration (Example 5); assay type: in vivo, human; details: individual subjects, 300 mg, 30 min from completion
[4] = Serum tobramycin concentrations following aerosol administration (Example 5); assay type: in vivo, human; details: for Serum Tobramycin: individual subjects
Procedure: (§1) The doses were separated by at least 2 days and not more than 5 days. Peak serum and sputum concentrations were assessed and results are seen in Tables 10 and 11.

P. aeruginosa = details: aerosolized 600 mg tid, cited from earlier work
[5] = Randomized cross-over study of nebulizers, peak sputum tobramycin
Source text: A randomized, cross-over study compared the ability of several nebulizers to deliver tobramycin by measuring peak sputum tobramycin concentrations in samples collected ten minutes after completion of the aerosol dose.

[6] = test system: Drug-Sensitive Strains of M. tuberculosis; experiment: microbe, parasite or virus in culture; assay type: cell-based; details: Mycobacterium tuberculosis
[7] = Ultrasonic nebulizer delivery of tobramycin, effect of saline dilution (Example 2); details: for aerosolized output of tobramycin, MEAN: UltraAire, 60 mg/mL, 5 mL, 10 minutes
Procedure: This example describes testing performed to determine the effect of normal and quarter strength diluted saline on the aerosolization of tobramycin and on the amount of drug delivered over a ten-minute period.
To test output from a hand-held portable ultrasonic nebulizer, an UltraAirs by Omron was used. This ultrasonic nebulizer has a reusable medication cup that is placed over the ultrasonic crystal. […] After 10 minutes nebulization run, the cups were reweighed. The aerosolized output of tobramycin was determined from the difference between weight before and after the nebulization. Each solute was tested 14 times.

clinical = assay type: in vivo, human; details: for Sputum Tobramycin Concentrations: individual subjects, 300 mg in 5 mL 1/4 NS
Procedure: as §1

M. tuberculosis = experiment: Minimal inhibitory / bactericidal concentration of tobramycin, general statements; set-up: species or system Mycobacterium tuberculosis
[8] = Comparative characteristics of nebulizers delivering tobramycin
Source text: Both ultrasonic and jet nebulizers were studied.
An in vitro comparative study evaluated a variety of commercially available jet nebulizers, including among others, the Acorn II® by Marquest, T-Updraft® by Hudson, Sidestream® by Medicaid, and Pari LC® by Pari. The PulmoAide® compressor was chosen because of its reliability and widespread use.

[9] = cited from earlier work

SMILES: NNC(=O)c1ccncc1 [isoniazid]
- persistence of bactericidal activity ([1]; FIG. 4): only temporary
- day growth of the bacteria resumed ([1]; isoniazid 0.06 μg/mL): 4 days
- day of initial sharp killing ([1]; isoniazid 0.06 μg/mL): 4 days
- day growth of the bacteria resumed ([1]; isoniazid 0.25 μg/mL): 7 days
- day of initial sharp killing ([1]; isoniazid 0.25 μg/mL): 1 days

SMILES: NC[C@H]1O[C@H](O[C@H]2[C@H](O)[C@@H](O[C@H]3O[C@H](CO)[C@@H](O)[C@H](N)[C@H]3O)[C@H](N)C[C@@H]2N)[C@H](N)C[C@@H]1O [tobramycin]
- color of the solution ([2]; 60 mg/mL, 40° C., pH 7.0, after 35 days): yellowing of the solution
- degradation of tobramycin ([2]; pH greater than 7.0): degradation of tobramycin occurs
- ± % change FEV1 ([3]; Pari LC): -1.2% and 1.2% and -0.6% and -2% and -5%
- ± % change FEV1 ([3]; Sidestream): -2.2% and 0.0% and -7.6% and -1%
- safety of the dosage ([4]; 300 mg aerosol, because of serum concentrations): extremely safe
- serum concentrations ([4]; 300 mg in 5 mL of 60 mg/mL in 1/4 NS): < 1600 ng/mL
- Serum Tobramycin ([4]; Pari LC, 300 mg in 5 mL 1/4 NS, 1 hour from completion, 60 min): 0.2 µg/mL and 0.5 µg/mL and 0.6 µg/mL and 0.8 µg/mL
- Serum Tobramycin ([4]; Pari LC, 300 mg in 5 mL 1/4 NS, 2 hours from completion, 120 min): 0.3 µg/mL and 0.4 µg/mL and 0.5 µg/mL and 0.7 µg/mL
- Serum Tobramycin ([4]; Pari LC, 300 mg, baseline): not detected
- Serum Tobramycin ([4]; Sidestream, 300 mg in 5 mL 1/4 NS, 1 hour from completion, 60 min): 0.3 µg/mL and 0.2 µg/mL and 0.9 µg/mL and 1.2 µg/mL and 1.6 µg/mL
- Serum Tobramycin ([4]; Sidestream, 300 mg in 5 mL 1/4 NS, 2 hours from completion, 120 min): 0.2 µg/mL and 0.8 µg/mL and 1.0 µg/mL
- Serum Tobramycin ([4]; Sidestream, 300 mg, baseline): not detected
- spirometry (P. aeruginosa; 71 CF patients): improved spirometry
- sputum density of P. aeruginosa (P. aeruginosa; 71 CF patients): significant reduction in sputum density of P. aeruginosa
- safety and efficacy in CF patients (P. aeruginosa): both safe and efficacious
- time to complete nebulization of all 5 mL ([5]; Pari LC, 60 mg/mL in 1/4 NS): about ten
- mass median aerodynamic diameter ([5]; Pari LC, 60 mg/mL in 5 mL 1/4 NS): about 3.3 μm
- Cmax at 10 min ([5]; human, in vivo, inhaled or intranasal, 300 mg): ~679000 ng/g
- MIC ([6]; H37RV, read-out: Tobramycin MIC, strain H37RV): 4 µg/mL (≈ 8.56 µM)
- MIC ([6]; all tested drug sensitive strains, read-out: minimal inhibitory concentration): 4 to 8 µg/mL (≈ 8.56 to 17.1 µM)
- MIC ([6]; read-out: Tobramycin MIC, strain TN675): 4 µg/mL (≈ 8.56 µM)
- MIC ([6]; read-out: Tobramycin MIC, strain TN994): 4 µg/mL (≈ 8.56 µM)
- MIC ([6]; read-out: Tobramycin MIC, strain TN1008): 4 µg/mL (≈ 8.56 µM)
- MIC ([6]; read-out: Tobramycin MIC, strain TN1039): 4 µg/mL (≈ 8.56 µM)
- MIC ([6]; read-out: Tobramycin MIC, strain TN2351): 8 µg/mL (≈ 17.1 µM)
- MIC ([6]; read-out: Tobramycin MIC, strain TN2524): 4 µg/mL (≈ 8.56 µM)
- MIC ([6]; read-out: Tobramycin MIC, strain TN3183): 4 µg/mL (≈ 8.56 µM)
- MIC ([6]; read-out: Tobramycin MIC, strain TN3979): 4 µg/mL (≈ 8.56 µM)
- MIC ([6]; read-out: Tobramycin MIC, strain TN4259): 4 µg/mL (≈ 8.56 µM)
- time for which growth is prevented ([1]; 4 μg/mL): about eight
- day at which growth is seen to be inhibited ([1]; 8 μg/mL): 7 days
- day at which 2-log reduction is reached ([1]; 16 μg/mL): four
- bactericidal activity compared to growth control ([1]; 1-2 μg/mL): bactericidal activity decreasing the count of M. tuberculosis
- reduction of M. tuberculosis counts in vitro ([1]; 8 and 16 μg/mL): more than 2 log
- activity against M. tuberculosis H37Rv in vitro ([1]; FIG. 4): potent activity
- persistence of bactericidal activity ([1]; FIG. 4): continuous decrease and inhibition of M. tuberculosis growth
- count of Mycobacterium tuberculosis after treatment ([1]; tobramycin 8 and 16 μg/mL, decreased from 10^6): about 10^2 CFU
- amount of tobramycin delivered ([7]; 1/4 diluted saline versus full strength nondiluted saline): Higher amount of tobramycin was delivered
- aerosolized output of tobramycin, MEAN ([7]; diluted 0.22% NS): 4.071
- aerosolized output of tobramycin, MEAN ([7]; nondiluted 0.9% NS): 3.636
- concentration at 10 min (clinical; human, sputum, inhaled or intranasal, mean, Pari LC, 300 mg, 10 min): 396000 ± 677000 ng/g
- Sputum Tobramycin Concentrations (clinical; Pari LC, 10 min from completion, 10 min): 1595.9 μg/gm and 764.2 μg/gm and 133.7 μg/gm and 166.5 μg/gm and 1395.6 μg/gm
- Sputum Tobramycin Concentrations (clinical; Pari LC, 1 hour, 60 min): 481.8 μg/gm and 231.8 μg/gm and 110.7 μg/gm and 32.4 μg/gm and 186.8 μg/gm
- Sputum Tobramycin Concentrations (clinical; Pari LC, 2 hours, 120 min): 416.8 μg/gm and 52.8 μg/gm and 92.5 μg/gm and 60.5 μg/gm and 131.8 μg/gm
- Sputum Tobramycin Concentrations (clinical; Pari LC, baseline): bql (<20 μg/gm)
- Sputum Tobramycin Concentrations (clinical; Sidestream, 10 min from completion, 10 min): 792.8 μg/gm and 460.6 μg/gm and 162.5 μg/gm and 84.2 μg/gm and 1135.9 μg/gm
- Sputum Tobramycin Concentrations (clinical; Sidestream, 1 hour, 60 min): 1026.7 μg/gm and 23.1 μg/gm and 180.5 μg/gm and 36.6 μg/gm and 488.2 μg/gm
- Sputum Tobramycin Concentrations (clinical; Sidestream, 2 hours, 120 min): 163 μg/gm and 49.1 μg/gm and 58.1 μg/gm and 57.5 μg/gm and 331.5 μg/gm
- Sputum Tobramycin Concentrations (clinical; Sidestream, baseline): bql (<20 μg/gm) and bqi
- Sputum Tobramycin Concentrations, Mean/Std Dev (clinical; mean, Pari LC, 300 mg, 1 hour): 186.8 μg/gm
- Sputum Tobramycin Concentrations, Mean/Std Dev (clinical; mean, Pari LC, 300 mg, 2 hours): 131.8 μg/gm
- Sputum Tobramycin Concentrations, Mean/Std Dev (clinical; mean, Pari LC, baseline): bql (<20 μg/gm)
- Sputum Tobramycin Concentrations, Mean/Std Dev (clinical; mean, Sidestream, 300 mg, 10 min): 527.21 ± 585.9 μg/gm
- Sputum Tobramycin Concentrations, Mean/Std Dev (clinical; mean, Sidestream, 300 mg, 1 hour): 488.2 μg/gm
- Sputum Tobramycin Concentrations, Mean/Std Dev (clinical; mean, Sidestream, 300 mg, 2 hours): 331.5 μg/gm
- Sputum Tobramycin Concentrations, Mean/Std Dev (clinical; mean, Sidestream, baseline): bql (<20 μg/gm)
- MBC (M. tuberculosis; Mycobacterium tuberculosis, in the lungs and sputum, read-out: concentration found to be bactericidal): ≥ 8 µg/mL
- MIC (M. tuberculosis; Mycobacterium tuberculosis, read-out: lowest systemic minimal inhibitory concentration): ~8 µg/mL (≈ 17.1 µM)
- MIC (M. tuberculosis; Mycobacterium tuberculosis, systemic administration, read-out: minimal inhibitory concentration which would need to be present in the systemic circulation): 800 to 1000 µg/mL (≈ 1710 to 2140 µM)
- sputum concentrations providing bactericidal activity, in multiples of MIC (M. tuberculosis; toward M. tuberculosis): 10-100 times MIC
- MMAD ([8]; DeVilbiss 99, 20 mg/mL in 1/2 NS): 4-5 microns
- Time to Nebulize ([8]; DeVilbiss 99, 20 mg/mL in 1/2 NS, 30 mL): 10 to 12 min
- Drug Dose/mL ([8]; DeVilbiss 99, 20 mg/mL in 1/2 NS, total dose 600 mg): 33 ± 1.8 mg
- tobramycin delivered ([8]; DeVilbiss 99, 600 mg): 33 mg/mL
- particle size ([8]; Pari LC): 4.5 μ
- particle sizes ([8]; Pari LC Plus): 3.3 μ
- MMAD ([8]; Pari LC, 60 mg/mL in 1/4 NS): 4-5 microns
- Time to Nebulize ([8]; Pari LC, 60 mg/mL in 1/4 NS, 5 mL): 10 min
- Drug Dose/mL ([8]; Pari LC, 60 mg/mL in 1/4 NS, total dose 300 mg): 29 ± 5 mg
- particle size output ([8]; Sidestream): 2.2 μ
- MMAD ([8]; Sidestream, 60 mg/mL in 1/4 NS): ~ 2.2 microns
- Time to Nebulize ([8]; Sidestream, 60 mg/mL in 1/4 NS, 5 mL, time to sputtering of jet): ~ 13 minutes
- Drug Dose/mL ([8]; Sidestream, 60 mg/mL in 1/4 NS, total dose 300 mg): 30 ± 1.8 mg
- tobramycin delivered to the airways ([8]; all three nebulizers): about 30 mg/mL
- maximum safe concentration in the serum [9]: 8 to 10 µg/mL
- recommended peak therapeutic serum concentrations [9]: 8 to 10 µg/mL
